Consider 70 compounds from PubChem BioAssay AID179 (DTP/NCI, 2004).

As a reminder, the EC50 is the concentration at which the effect is half-maximal. For orientation: IC50 means the concentration that gives 50% inhibition. Read a low IC50 as higher potency.

For this assay, the system named is CEM cells HIV-1 protection, formazan growth assay. Kind of assay: NCI AIDS Antiviral Assay. To be noted: for IC50: measured here: growth of uninfected CEM cells. In short, it runs like this:
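Soluble formazan readout of cell growth; CEM cells ± HIV-1; 5 drug concs. ≥50% protection → retest; ≥50% again = moderately active; reproducible 100% = confirmed active.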

Active and inactive are the calls of the source.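 Rule for the calls: active = compounds giving half or more protection of infected cells from virus-caused growth loss, again on retest; inactive = the rest.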 Where a SMILES comes first, the peptide text is derived from it.

Take `CC(C)c1oc(=O)cc2c1C(O)C1OC(=O)C3(C)C(O)C4OC4C2(C)C13` (centres undefined): the EC50 was more than 36.3 µM and the IC50 was 0.17 µM.

For `COc1cc(-c2cc(=O)c3c(O)c(OC)c(OC)c(OC)c3o2)cc(OC)c1OC`, the EC50 is more than 70.8 µM and the IC50 was more than 70.8 µM.

Take `CC12CC(Sc3ccccc3N1)c1ccccc1O2` (centres undefined): the EC50 is more than 132 µM and the IC50 was determined as 21.4 µM.

In the case of `CC(/C=N/N(C)C1=NCCCN1)=N/N(C)C1=NCCCN1`, the EC50 was more than 200 µM and the IC50 was more than 200 µM.

Take `N=C(N)C1CN(CCc2c[nH]c3ccccc23)C(=O)NC1=O` (centres undefined): the EC50 is more than 200 µM and the IC50 was more than 200 µM.

As for `CC(Nc1cc(=O)n(C)c(=O)[nH]1)c1ccccc1` (centres undefined), the EC50 was 55 µM and the IC50 was more than 200 µM.

As for `CC1=NN(C(=O)c2ccc(O)cc2)C(=O)C1N=Nc1ccccc1C(=O)O` (centres undefined), the outcome was inactive.

With `CSc1cc(Cl)c(C)cc1S(=O)(=O)n1cc[nH]c1=O`, the EC50 was more than 200 µM and the IC50 is more than 200 µM.

Turning to `C[N+](C)(C)CC1CCCCCCCCCCC1=O` (centres undefined), the EC50 was 60.3 µM and the IC50 worked out at 148 µM.

For `O=CC1=C(C(=O)OC(c2ccccc2)c2ccccc2)N2C(=O)[C@@H](NC(=O)Cc3cccs3)[C@H]2SC1`, the EC50 is more than 200 µM and the IC50 is 123 µM.

As for `O=C1OC(C2(O)OC(=O)c3ccccc32)c2ccccc21` (centres undefined), the EC50 is more than 200 µM and the IC50 was more than 200 µM.

Regarding `COc1cc2c(cc1Oc1ccc(OC)c3c1CC1c4c(cc(OC)c(OC)c4-3)CCN1C)CC1c3c(cc(OC)c(OC)c3-2)CCN1C` (centres undefined), the result was inactive.

Regarding `CCC(C)C(N)C(=O)NCC(=O)NC(CCCN=C(N)N)C(=O)NC(CC(N)=O)C(=O)NC(CC(C)C)C(=O)NC(CC(C)C)C(=O)NC(C(=O)NC(CCC(N)=O)C(=O)NC(C(=O)NCC(=O)O)C(C)CC)C(C)O` (centres undefined) (H-IGRNLLTQIG-OH; configuration not given here), the outcome was inactive.

Regarding `COC(=O)C1=CN(C2CCCCC2)C2(c3ccccc3)c3ccccc3C(=O)OC(=O)C12` (centres undefined), the EC50 was 132 µM and the IC50 was more than 200 µM.

For `[Pt].c1ccc([PH+](CC[PH+](CC[PH+](c2ccccc2)c2ccccc2)CC[PH+](c2ccccc2)c2ccccc2)c2ccccc2)cc1`, the EC50 is more than 21.9 µM and the IC50 came out at 0.417 µM.

Consider `COc1nc(NC2OC(CO)C(O)C2O)cc(=O)n1C` (centres undefined), for which the outcome was inactive.

Regarding `CN(C)c1ccc(S(=O)c2ccc(N(C)C)cc2)cc1`, the EC50 is more than 34.7 µM and the IC50 was more than 34.7 µM.

Regarding `CC(=O)c1c2c(cc3c1CC1(C3)Cc3cc4c(c(C(C)=O)c3C1)CCC4)CCC2`, the EC50 was more than 18.6 µM and the IC50 is more than 18.6 µM.

`Cc1cc2c(c(C=Nc3ccc(N(C)C)cc3)c1)OC1(C=C2)Oc2ccccc2C(=O)N1C` (centres undefined): the EC50 was more than 41.7 µM and the IC50 was 13.2 µM.

As to `Cc1cc(C)c(C2[C@H]3C(=O)N(c4ccc(Cc5ccc(N6C(=O)[C@@H]7ON(c8ccccc8)C(c8c(C)cc(C)cc8C)[C@@H]7C6=O)cc5)cc4)C(=O)[C@H]3ON2c2ccccc2)c(C)c1` (some centres undefined), the EC50 is more than 22.4 µM and the IC50 was more than 22.4 µM.

For `CCOC(=O)[C@H]1Nc2ccc([N+](=O)[O-])cc2C2c3ccccc3CC21` (some centres undefined), the EC50 was more than 11.2 µM and the IC50 is more than 11.2 µM.

In the case of `CCOC(=O)c1nnc2sc(-c3ccccc3)nn12`, the EC50 is 58.9 µM and the IC50 is 191 µM.

Regarding `CN1N=CSC12C(=O)N(c1ccccc1)C(=O)N2c1ccccc1` (centres undefined), the outcome was inactive.

With `O=C(Nc1ccc(NC(=O)c2ccc(C3=NCCN3)cc2)cc1)Nc1ccc(C2=NCCN2)cc1`, the EC50 is more than 200 µM and the IC50 came out at 50.1 µM.

Take `CCCCCCCCCCCCCCCCOC1OC(CS(=O)(=O)O)C(O)C(O)C1O` (centres undefined): the EC50 was more than 138 µM and the IC50 is 40.7 µM.

As for `Cc1cc(S(=O)(=O)Nc2nnc3c(Cl)cc(C(F)(F)F)cn23)c(S)cc1Cl`, the EC50 is 70.8 µM and the IC50 was determined as 380 µM.

As for `Cc1ccc(S(=O)(=O)NCNS(=O)(=O)c2ccc(C)cc2)cc1`, the EC50 is more than 200 µM and the IC50 was more than 200 µM.

Consider `CNC1C(OC2C(OC3C(O)C(O)C(N=C(N)N)C(O)C3N=C(N)N)OC(C)C2(O)C=O)OC(CO)C(OC2OC(CO)C(O)C(O)C2O)C1O` (centres undefined), for which the result was inactive.

`CCCCCC(=O)NC(=S)Nc1nn[nH]n1`: the EC50 was more than 200 µM and the IC50 was more than 200 µM.

For the compound `Cc1cc2nncn2c2nnnn12`, the EC50 was more than 200 µM and the IC50 is more than 200 µM.

In the case of `CC(C)(C)CP(=S)(CC(C)(C)C)CC(C)(C)C`, the EC50 is more than 117 µM and the IC50 was more than 117 µM.

Turning to `Cc1cccc(NC(=O)CC(=O)N2N=C(N(CCC#N)c3ccc(Cl)cc3)CC2c2ccccc2)c1` (centres undefined), the EC50 is more than 100 µM and the IC50 is more than 100 µM.

Take `C1=CCCC=CCC1.C[PH+](C)C.C[PH+](C)C.C[PH+](C)C.[Cl-].[Ir]`: the result was inactive.

Regarding `NC(=O)NN=C1CCC(CC2CCCCC2)CC1` (centres undefined), the EC50 was more than 200 µM and the IC50 stood at 174 µM.

As for `CN(C)Cc1ccccc1CCO`, the EC50 was more than 200 µM and the IC50 was more than 200 µM.

For `c1ccc(CSSCc2ccccc2)cc1`, the result was inactive.

For the compound `CC(=O)OCC1=C(CCC#N)N2C(=O)C(NC(=O)Cc3cccs3)C2S(=O)C1` (centres undefined), the EC50 was more than 200 µM and the IC50 was 95.5 µM.

As for `COc1cncn2nc(C)nc12`, the EC50 is more than 75.9 µM and the IC50 was more than 75.9 µM.

As for `CC(=O)OCC1OC(N2C(=O)NC(=O)C3C=C4CCCCC4=CC32)C(OC(C)=O)C1OC(C)=O` (centres undefined), the EC50 was more than 200 µM and the IC50 is more than 200 µM.

For the compound `CCC(=O)N1C(=O)C(CC)(CC)C(=O)N1C(=O)CC`, the EC50 is more than 200 µM and the IC50 is more than 200 µM.

In the case of `O=C(OCc1ccccc1)C1CCN1C(c1ccccc1)c1ccccc1` (centres undefined), the EC50 is more than 100 µM and the IC50 is more than 100 µM.

As for `O=[N+]([O-])c1ccc(-c2csc(N=Nc3c(O)[nH]c4ccccc34)n2)cc1`, the EC50 came out at 141 µM and the IC50 was more than 200 µM.

For `CCN(CC)C(=O)N1CN(c2ccccc2)C2(CCN(CCCSc3ccc(F)cc3)CC2)C1=O`, the EC50 was more than 200 µM and the IC50 stood at 9.77 µM.

With `Cc1cc(C)n2c(-c3ccccc3)c(C)cc2n1`, the EC50 was more than 110 µM and the IC50 came to 17.4 µM.

Regarding `CC(=O)C1CC[C@@H](C)[C@@H]2CC[C@@]3(C)OO[C@@]12[C@H](OC=O)O3` (some centres undefined), the EC50 is more than 200 µM and the IC50 came to 27.5 µM.

Take `O=C(O)C(Oc1ccc2cc(Br)ccc2c1)C(=O)O`: the outcome was inactive.

For `N#Cc1nc(COCc2ccccc2)oc1N`, the EC50 was more than 200 µM and the IC50 amounted to 95.5 µM.

For `COC(=O)/C=C\C(C#N)(C#N)N=Cc1ccc(C)s1`, the EC50 was more than 2 µM and the IC50 came to 0.575 µM.

As to `Cn1c(=O)cc(O)c2ccccc21`, the EC50 was more than 200 µM and the IC50 was more than 200 µM.

On to `C[C@@H](NC(=O)[C@@H]1C[C@]1(C)COC(=O)c1cc([N+](=O)[O-])cc([N+](=O)[O-])c1)c1cccc2ccccc12`, for which the EC50 is more than 200 µM and the IC50 amounted to 115 µM.

Regarding `Cc1ccc(/C=N/NS(=O)(=O)c2ccccc2)cc1`, the result was inactive.

Consider `OC(CNc1ncccn1)c1ccccc1` (centres undefined), for which the EC50 was more than 200 µM and the IC50 was more than 200 µM.

For the compound `CN1N=C(c2ccncc2)OC1c1ccc(Cl)cc1Cl` (centres undefined), the EC50 was more than 200 µM and the IC50 turned out to be 85.1 µM.

Consider `COc1ccc(P2(=S)Oc3ccc(C(c4ccccc4)(c4ccccc4)c4ccccc4)cc3O2)cc1` (centres undefined), for which the result was inactive.

Regarding `CC1OC(OC2C(O)C(O)C(N=C(N)N)C(O)C2N=C(N)N)C(OC2OC(CO)C(O)C(O)C2N(C)C=N)C1(O)CO` (centres undefined), the outcome was inactive.

As for `CC(C)(C)c1cc2c3c(c1)C(C(F)(F)F)(C(F)(F)F)O[Te]3(C)OC2(C(F)(F)F)C(F)(F)F`, the EC50 was more than 31.6 µM and the IC50 is more than 31.6 µM.

On to `O=C(NNC(=S)NC1CCCCC1)C12CC3CC(CC(C3)C1)C2`, for which the EC50 was more than 200 µM and the IC50 was more than 200 µM.

As for `Cc1ccc(N=NC(C2=NC(=O)CS2)c2nc3ccccc3[nH]2)cc1` (centres undefined), the EC50 was more than 7.41 µM and the IC50 is more than 7.41 µM.

For `NC(CSS(=O)(=O)O)=NCCSc1ccc(Cl)cc1`, the EC50 is more than 200 µM and the IC50 was found to be 60.3 µM.

For `O=S(=O)(CCCCl)SCCCCl`, the EC50 was more than 145 µM and the IC50 was 20 µM.

`O=C([O-])[C+](C=Cc1cccc2ccccc12)C(=O)O`: the EC50 is more than 708 µM and the IC50 is 257 µM.

With `Cc1ccc(S(=O)(=O)N/N=C(\c2nc3ccc([N+](=O)[O-])cc3[nH]c2=O)C(O)c2ccccc2Cl)cc1` (centres undefined), the outcome was inactive.

As for `Nc1c(S(=O)(=O)O)cc(S(=O)(=O)O)c2ccc(N=Nc3ccc(/C=C/c4ccc(N=Nc5ccc6c(S(=O)(=O)O)cc(S(=O)(=O)O)c(N)c6c5O)cc4S(=O)(=O)O)c(S(=O)(=O)O)c3)c(O)c12`, the EC50 is 10.2 µM and the IC50 is 51.3 µM.

Consider `O=C(O)Cc1ccc(Nc2nc3cc(C(F)(F)F)ccc3nc2C(=O)O)cc1`, for which the EC50 is more than 200 µM and the IC50 is more than 200 µM.

Turning to `CC(=O)N1C(=O)CC2(N=C(C)CC2=O)c2ccccc21` (centres undefined), the EC50 is more than 200 µM and the IC50 is more than 200 µM.

On to `CCOc1ncn(-c2ccc(NC(=S)Nc3cccc(O)c3)cc2)n1`, for which the EC50 is more than 200 µM and the IC50 is more than 200 µM.

As for `COc1cc(OC)c(OC)cc1/C=N/N=C(\N)NO`, the EC50 is more than 200 µM and the IC50 is more than 200 µM.

Turning to `CCOC(=O)NC(=O)c1cn(CCCCCCOC(=O)NCCCCCCNC(=O)OCCCCCCn2cc(C(=O)NC(=O)OCC)c(=O)[nH]c2=O)c(=O)[nH]c1=O`, the outcome was inactive.

As to `COc1ccc2c3c(cnc2c1)P(C)(=O)CC3` (centres undefined), the outcome was inactive.

For the compound `NC(Cc1cc(O)c(O)c(S(=O)(=O)c2ccccc2)c1)C(=O)O` (centres undefined), the result was inactive.
